Measured values published in PubChem BioAssay (NCI).
Several values for one entry are separate records, joined by “and”; a condition that tells them apart may be missing. Equal entries are not always repeated.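 96-well plates; 48 h exposure; 5 concentrations. Endpoints by linear interpolation between flanking doses. Not reached: highest tested concentration assigned. Abbreviation: GI50, concentration required for 50% inhibition of growth. TGI denotes the concentration required for complete inhibition of growth.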

Key:
Test in all cases: DTP human tumour cell line panel, 48 h
SK-OV-3 ovarian = system: SK-OV-3 ovarian
HT29 colon = system: HT29 colon
SF-295 CNS = system: SF-295 CNS
OVCAR-3 ovarian = system: OVCAR-3 ovarian
HL-60(TB) leukemia = system: HL-60(TB) leukemia
HOP-92 NSCLC = system: HOP-92 NSCLC
ACHN renal = system: ACHN renal
OVCAR-5 ovarian = system: OVCAR-5 ovarian
HCT-15 colon = system: HCT-15 colon
HS 578T breast = system: HS 578T breast

Row | Compound | TGI (SK-OV-3 ovarian) | TGI (HT29 colon) | TGI (SF-295 CNS) | TGI (OVCAR-3 ovarian) | TGI (HL-60(TB) leukemia) [µM] | TGI (HOP-92 NSCLC) | TGI (ACHN renal) | TGI (OVCAR-5 ovarian) [µM] | TGI (HCT-15 colon) [µM] | GI50 (SK-OV-3 ovarian) [µM] | GI50 (HT29 colon) | GI50 (SF-295 CNS) [µM] | GI50 (OVCAR-3 ovarian) [µM] | GI50 (HOP-92 NSCLC) [µM] | GI50 (ACHN renal) [µM] | GI50 (OVCAR-5 ovarian) | GI50 (HCT-15 colon) | GI50 (HL-60(TB) leukemia) [µM] | GI50 (HS 578T breast) [µM] | TGI (HS 578T breast) [µM]
1 | CC1=C(C(=O)Nc2ccccc2C)C(c2ccc(Cl)cc2)C(C(=O)Nc2ccccc2C)=C(C)N1 | > 100 µM | > 100 µM | > 100 µM | > 100 µM | > 100 | > 100 µM | > 100 µM | > 100 | > 100 |  |  |  |  |  |  |  |  |  |  | 
2 | O=C(NCCCOC(=O)CCCCCCCCC(=O)OCCCNC(=O)NC(=O)c1c[nH]c(=O)[nH]c1=O)NC(=O)c1c[nH]c(=O)[nH]c1=O | > 100 µM |  | > 100 µM | > 100 µM | > 100 | > 100 µM | > 100 µM | > 100 | > 100 |  |  |  |  |  |  |  |  |  |  | 
3 | CN1N=CSC12C(=O)N(c1ccccc1)C(=O)N2c1ccccc1 (configuration not stated) | > 100 µM | > 100 µM | > 100 µM | > 100 µM | > 100 |  | > 100 µM | > 100 | > 100 |  |  |  |  |  |  |  |  |  |  | 
4 | CCOC(=O)Oc1c(OC)cc(C(=O)c2ccc(OC)c(O)c2OC)cc1OC | > 100 µM | 22.8 µM | 49.7 µM | > 100 µM |  | > 100 µM | > 100 µM | > 100 | > 100 | 2.88 | 3.13 µM | 0.524 | 0.414 | 0.727 | 1.95 | 5.96 µM | 0.42 µM |  |  | 
5 | C/C=C/C(C#N)O[Si](C)(C)C (configuration not stated) | > 100 µM | > 100 µM | > 100 µM | > 100 µM | > 100 | > 100 µM | > 100 µM | > 100 | > 100 |  |  |  |  |  |  |  |  |  |  | 
6 | COc1cc(Cl)cc(=O)c(O)c1OC | > 100 µM | > 100 µM | > 100 µM | > 87.2 µM | > 80.9 |  | > 100 µM | > 100 | > 100 |  |  |  |  |  |  |  |  |  |  | 
7 | CCOC(=O)NC(=O)c1cn(CCN2CCN(C(=O)NCCCCCCNC(=O)N3CCN(CCn4cc(C(=O)NC(=O)OCC)c(=O)[nH]c4=O)CC3)CC2)c(=O)[nH]c1=O | > 100 µM | > 100 µM | > 100 µM | > 100 µM | > 100 | > 100 µM | > 100 µM | > 100 | > 100 |  |  |  |  |  |  |  |  |  |  | 
8 | O=C(O)c1nc(NCc2nc3cc(Cl)ccc3o2)n[nH]1 | > 100 µM | > 100 µM | > 100 µM | > 100 µM | > 100 |  | > 100 µM | > 100 | > 100 | > 100 | > 100 µM | > 100 | > 100 |  | > 100 | > 100 µM | > 100 µM | > 100 | > 100 | > 100
9 | Cn1ccnc1CCc1c(Cl)cccc1Cl | > 100 µM | > 100 µM | > 100 µM | > 100 µM | > 100 | > 100 µM | > 100 µM | > 100 | > 100 |  |  |  |  |  |  |  |  |  |  | 
10 | Cc1c(OC(C)C(=O)O)ccc2c(-c3ccccc3)cc(=O)oc12 (configuration not stated) | > 100 µM | > 100 µM | > 100 µM | > 100 µM | > 100 | > 100 µM | > 100 µM |  |  |  |  |  |  |  |  |  |  |  |  | 
11 | COC1=NCc2ccccc2-c2ccccc21 | > 100 µM | > 100 µM | > 100 µM | > 100 µM | > 100 |  | > 100 µM |  | > 100 |  |  |  |  |  |  |  |  |  |  | 
12 | O=C1Nc2ccccc2C1(O)C/C(=N/O)c1ccc2ccccc2c1 (configuration not stated) | > 100 µM | > 100 µM | > 100 µM | > 100 µM | > 100 |  | > 100 µM | > 100 | > 100 |  |  |  |  |  |  |  |  |  |  | 
13 | Cc1ccc(S(=O)(=O)SC/C=C\CSS(=O)(=O)c2ccc(C)cc2)cc1 | 98.9 µM and 83.2 µM | > 62.8 µM and 39.7 µM | > 95.7 µM and 50.7 µM | 78.8 µM and 56 µM |  | > 72.7 µM and 37.9 µM | > 100 µM and 83.6 µM | > 100 | > 100 |  | 6.14 µM and 20.3 µM |  |  |  |  | > 78.5 µM and 30 µM | 6.16 µM and 43.4 µM |  |  | > 100
14 | CCc1c(C#N)c(=O)[nH]c(=O)n1CCN1CCN(C(=O)NCCCCCCNC(=O)N2CCN(CCn3c(CC)c(C#N)c(=O)[nH]c3=O)CC2)CC1 | > 100 µM | > 100 µM | > 100 µM | > 100 µM | > 100 |  | > 100 µM |  | > 100 |  |  |  |  |  |  |  |  |  |  | 
15 | CCSCCCSCCSCC | > 100 µM | > 100 µM | > 100 µM | > 100 µM | > 100 |  |  | > 100 | > 100 |  |  |  |  |  |  |  |  |  |  | 
16 | O=[N+]([O-])c1ccccc1N=Nc1c(O)[nH]c2cccc(C(F)(F)F)c12 | > 100 µM | > 100 µM | > 100 µM | 62.2 µM | > 100 |  | 40.1 µM | > 100 | > 100 |  |  |  |  |  |  |  |  |  |  | > 100
17 | IC[P+]1(c2ccccc2)CCCC1 | > 100 µM | > 100 µM | > 100 µM | > 100 µM | > 100 |  | > 100 µM | > 100 | > 100 |  |  |  |  |  |  |  |  |  |  | 
18 | CC(=O)c1c(C(F)(F)F)n([O-])c2ccccc2[n+]1=O | 23.9 µM | 8.3 µM | 4.53 µM | 2.61 µM |  | 4.35 µM | 12.3 µM | 3.67 | 50.4 | 3.17 | 1.3 µM | 1.07 | 0.746 | 1.22 | 1.05 | 1.18 µM | 1.29 µM |  | 1.97 | 6.5
19 | O=C(N/N=C/c1ccccc1O)N/N=C/c1ccccc1O | > 100 µM | > 100 µM | > 100 µM | > 100 µM | > 100 | > 100 µM | > 100 µM | > 100 | > 100 |  |  |  |  |  |  |  |  |  |  | 
20 | CC[O-].CC[O-].O=C([CH-]C(=O)c1ccccc1)CCCCCCCCC(=O)[CH-]C(=O)c1ccccc1.[Ti+4] | > 100 µM | > 100 µM | > 100 µM | > 100 µM | > 100 | > 100 µM | > 100 µM | > 100 | > 100 | > 100 | > 100 µM | 1.52 | 0.756 | 67.5 | > 100 | > 100 µM | > 100 µM | > 100 |  | 
21 | O=C1CC(CC(=O)C2CCCCC2=O)C(=O)N1 (configuration not stated) | > 100 µM | > 100 µM | > 100 µM | > 100 µM | > 100 | > 100 µM | > 100 µM | > 100 |  |  |  |  |  |  |  |  |  |  |  | 
